Reference: ChEMBL document CHEMBL5154686, “Discovery of G2019S-Selective Leucine Rich Repeat Protein Kinase 2 inhibitors with in vivo efficacy” (Eur J Med Chem, 2022)

Legend:
in vitro [1] = details: human, Caco-2
in vitro [2] = details: mouse, liver microsomes
[3] = MRT in CD-1 mouse plasma at 0.4 mg/kg, iv by LC-MS/MS analysis; assay type: ADME, organism-based
[4] = AUC infinity in CD-1 mouse plasma at 2 mg/kg, po by LC-MS/MS analysis; assay type: ADME, organism-based; parameters: time infinity, dose 2 mg/kg, route po
[5] = Cmax in CD-1 mouse plasma at 0.4 mg/kg, iv by LC-MS/MS analysis; assay type: ADME, organism-based; parameters: dose 0.4 mg/kg, route iv
in vitro [6] = details: human, Caco-2; remark: listed apart in the source
[7] = Ratio of drug level in brain to plasma in CD-1 mouse plasma at 0.4 mg/kg, iv by LC-MS/MS analysis; assay type: ADME, organism-based; details: brain and plasma, read-out: BPR
in vitro [8] = details: human, liver microsomes
[9] = Clearance in CD-1 mouse plasma at 0.4 mg/kg, iv by LC-MS/MS analysis; assay type: ADME, organism-based
[10] = Half life in CD-1 mouse plasma at 0.4 mg/kg, iv by LC-MS/MS analysis; assay type: ADME, organism-based
[11] = Half life in CD-1 mouse plasma at 2 mg/kg, po by LC-MS/MS analysis; assay type: ADME, organism-based
[12] = Ratio of drug level in brain to plasma in CD-1 mouse plasma at 2 mg/kg, po by LC-MS/MS analysis; assay type: ADME, organism-based; details: brain and plasma, read-out: BPR
[13] = Oral bioavailability in CD-1 mouse plasma at 2 mg/kg by LC-MS/MS analysis; assay type: ADME, organism-based
[14] = Tmax in CD-1 mouse plasma at 2 mg/kg, po by LC-MS/MS analysis; assay type: ADME, organism-based
[15] = MRT in CD-1 mouse plasma at 2 mg/kg, po by LC-MS/MS analysis; assay type: ADME, organism-based
[16] = Cmax in CD-1 mouse plasma at 2 mg/kg, po by LC-MS/MS analysis; assay type: ADME, organism-based; parameters: dose 2 mg/kg, route po
[17] = AUC infinity in CD-1 mouse plasma at 0.4 mg/kg, iv by LC-MS/MS analysis; assay type: ADME, organism-based; parameters: time infinity, dose 0.4 mg/kg, route iv

| Papp B→A (in vitro [1]) [×10⁻⁶ cm/s] | half-life (in vitro [2]) [min] | MRT [3] [min] | AUC(0-inf) [4] [µM·h] | Cmax [5] [nM] | Papp A→B (in vitro [6]) [×10⁻⁶ cm/s] | Kp [7] | half-life (in vitro [8]) [min] | clearance [9] [mL/min] | half-life [10] [min] | half-life [11] [min] | Kp [12] | bioavailability [13] [%] | Tmax [14] [min] | MRT [15] [min] | Cmax [16] [nM] | AUC(0-inf) [17] [µM·h] | SMILES |
| --- | --- | --- | --- | --- | --- | --- | --- | --- | --- | --- | --- | --- | --- | --- | --- | --- | --- |
| 25 | 10.3 | 24.6 | 1.29 | 280 | 19 | 1 | 38 | 94.9 | 18 | 88.2 | 0.5 | 147 | 30 | 145 | 460 | 0.14 | N#Cc1ccc2c(c1)OCC[C@H]2Nc1ccc2[nH]nc(-c3ccncc3)c2c1 |
| 0.8 | 12.7 | 51.6 | 1.64 | 480 | 6.2 | 0.3 | 30 | 36.6 | 42 | 104 | 0.1 | 80 | 30 | 175 | 500 | 0.4 | N#Cc1ccc2c(c1)CCC[C@H]2Nc1ccc2[nH]nc(-c3ccnc(N4CCOCC4)c3)c2c1 |
| 11 | 12.4 | – | – | – | 8.1 | – | 26 | – | – | – | – | – | – | – | – | – | N#Cc1ccc2c(c1)CCC[C@H]2Nc1ccc2[nH]nc(-c3ccncc3)c2c1 |
| 4.1 | 15.4 | – | – | – | 13 | – | 22 | – | – | – | – | – | – | – | – | – | Cc1cc(-c2n[nH]c3ccc(N[C@H]4CCCc5cc(C#N)ccc54)cc23)ccn1 |
| 6.8 | 12.8 | 30.6 | 1.06 | 310 | 1.8 | 0.5 | 22 | 65.1 | 24 | 107 | 0.1 | 77 | 3000 | 162 | 390 | 0.16 | Cc1cc(-c2n[nH]c3ccc(N[C@@H]4CCCc5cc(C#N)ccc54)cc23)ccn1 |
| 4 | 11.7 | – | – | – | 4.6 | – | 15 | – | – | – | – | – | – | – | – | – | Cc1cc(-c2n[nH]c3ccc(N[C@H]4CCCc5cc(C#N)ccc54)cc23)cc(C)n1 |
| 7.3 | 17.7 | 48 | 1.49 | 340 | 8.9 | 1.8 | 33 | 68.4 | 42 | 90 | 0.8 | 112 | 30 | 152 | 470 | 0.27 | N#Cc1ccc2c(c1)CCC[C@@H]2Nc1ccc2[nH]nc(-c3ccncc3)c2c1 |
